US12383556B2, “Methods of treating Sjögren's syndrome using a Bruton's tyrosine kinase inhibitor” (NOVARTIS AG, priority 2019, dated 2025)
Read-outs that look alike come from different tables or passages of the source.

Test: First-in-human Part 2 multiple ascending dose q.d. blood and urine PK
Format: in vivo
Conditions: human, oral; for Cmax: read-out: Cmax; for MRT: read-out: MRT; for Vd/F: read-out: Vss/F; for half-life: read-out: T½ (converted)
From the text: First-in-human study in up to approximately 168 healthy volunteers (HVs), of which 64 (in Parts 2 & 4) had asymptomatic atopic diathesis. • Part 1 was a double-blind (subject and investigator blind, sponsor unblinded), placebo-controlled single ascending dose (SAD) escalation study of 10 cohorts (N=80) • Part 2 was a double-blind (subject and investigator blind, sponsor unblinded), placebo-controlled multiple ascending dose (MAD) (13 doses over 12 days) escalation study employing once daily dosing in 6 cohorts in healthy volunteers with asymptomatic atopic diathesis (N=48) • Part 3 was a single dose open-label crossover food effect study in 12 HVs • Part 4 was a double-blind (subject and investigator blind, sponsor unblinded), placebo-controlled multiple dose (25 doses over 12 days) study employing twice daily dosing in 2 cohorts of healthy volunteers with asymptomatic atopic diathesis (N=16)
In Parts 2 and 4, subjects were admitted on Day −2 or −1 for baseline safety assessments and to confirm eligibility. Eligible subjects received the first dose of compound (I) under fasting conditions on Day 1, and continued to take study medication under fasting conditions up to and including Day 12. Subjects were domiciled from Day −2 or −1 until the morning of Day 16, which equals 96 hours after the last dose of compound (I) was received. In Parts 2 and 4, the study medication was given once daily and twice daily respectively (details are found in the schedule of assessments).
Subjects were assigned to one of the following 6 cohorts. In each cohort, 8 subjects were randomized to either compound (I) or matching placebo in a 6:2 ratio. • Cohort 1: multiple oral doses of 10 mg compound (I) or matching placebo • Cohort 2: multiple oral doses of 25 mg compound (I) or matching placebo • Cohort 3: multiple oral doses of 50 mg compound (I) or matching placebo • Cohort 4: multiple oral doses of 100 mg compound (I) or matching placebo • Cohort 5: multiple oral doses of 400 mg compound (I) or matching placebo • Cohort 6: multiple oral doses of up to 600 mg compound (I) or matching placebo
Pharmacokinetic samples were obtained in blood and evaluated in all subjects at all dose levels. The samples from placebo subjects were not analyzed. The samples for PK assessments from subjects were collected at time points defined in the study. Compound (I) concentrations were determined in blood by a validated LC-MS/MS method.

[1] = blood, 10 mg, 10 mg qd, Day 1, blood, Median (Min-Max)
[2] = blood, 10 mg, 10 mg qd, Day 12, blood, Median (Min-Max)
[3] = blood, 25 mg, 25 mg qd, Day 1, blood, Median (Min-Max)
[4] = blood, 25 mg, 25 mg qd, Day 12, blood, Median (Min-Max)
[5] = blood, 50 mg, 50 mg qd, Day 1, blood, Median (Min-Max)
[6] = blood, 50 mg, 50 mg qd, Day 12, blood, Median (Min-Max)
[7] = blood, 100 mg, 100 mg qd, Day 12, blood, Median (Min-Max)
[8] = blood, 400 mg, 400 mg qd, Day 12, blood, Median (Min-Max)
[9] = blood, 600 mg, 600 mg qd, Day 12, blood, Median (Min-Max)

- AUC(0-t) (blood, 10 mg, 10 mg qd, Day 1, blood, Median (Min-Max), read-out: AUClast): 4.4 ng·h/mL
- Cmax [1]: 8.03 ng/mL
- MRT [1]: 0.766 h
- Vd/F (blood, 10 mg, 10 mg qd, Day 12, blood, Mean ± SD): 554 ± 90.4 L
- Tmax [2]: 0.625 h
- Cmax [2]: 17.2 ng/mL
- Vd/F [2]: 562 L
- AUC(0-t) (blood, 25 mg, 25 mg qd, Day 1, blood, Mean ± SD, read-out: AUC0-24): 44.9 ± 25.2 ng·h/mL
- AUC(0-t) (blood, 25 mg, 25 mg qd, Day 1, blood, Mean ± SD, read-out: AUClast): 43.9 ± 24.6 ng·h/mL
- MRT (blood, 25 mg, 25 mg qd, Day 1, blood, Mean ± SD): 1.18 ± 0.49 h
- AUC(0-t) (blood, 25 mg, 25 mg qd, Day 1, blood, Median (Min-Max), read-out: AUC0-24): 46.6 ng·h/mL
- AUC(0-t) (blood, 25 mg, 25 mg qd, Day 1, blood, Median (Min-Max), read-out: AUClast): 45.5 ng·h/mL
- Cmax [3]: 37.3 ng/mL
- MRT [3]: 1.17 h
- Vd/F (blood, 25 mg, 25 mg qd, Day 12, blood, Mean ± SD): 407 ± 208 L
- Cmax [4]: 78.4 ng/mL
- Vd/F [4]: 334 L
- AUC(0-t) (blood, 50 mg, 50 mg qd, Day 1, blood, Mean ± SD, read-out: AUC0-24): 116 ± 32.9 ng·h/mL
- AUC(0-t) (blood, 50 mg, 50 mg qd, Day 1, blood, Mean ± SD, read-out: AUClast): 113 ± 34.2 ng·h/mL
- MRT (blood, 50 mg, 50 mg qd, Day 1, blood, Mean ± SD): 2.53 ± 1.17 h
- Tmax [5]: 0.5 h
- AUC(0-t) (blood, 50 mg, 50 mg qd, Day 1, blood, Median (Min-Max), read-out: AUC0-24): 107 ng·h/mL
- AUC(0-t) (blood, 50 mg, 50 mg qd, Day 1, blood, Median (Min-Max), read-out: AUClast): 103 ng·h/mL
- Cmax [5]: 70.1 ng/mL
- MRT [5]: 2.44 h
- Vd/F (blood, 50 mg, 50 mg qd, Day 12, blood, Mean ± SD): 431 ± 172 L
- Tmax [6]: 1 h
- Vd/F [6]: 346 L
- MRT (blood, 100 mg, 100 mg qd, Day 1, blood, Median (Min-Max)): 2.16 h
- Vd/F (blood, 100 mg, 100 mg qd, Day 12, blood, Mean ± SD): 1910 ± 2780 L
- Cmax [7]: 205 ng/mL
- Vd/F [7]: 338 L
- AUC(0-t) (blood, 400 mg, 400 mg qd, Day 1, blood, Median (Min-Max), read-out: AUC0-24): 826 ng·h/mL
- AUC(0-t) (blood, 400 mg, 400 mg qd, Day 1, blood, Median (Min-Max), read-out: AUClast): 826 ng·h/mL
- MRT (blood, 400 mg, 400 mg qd, Day 1, blood, Median (Min-Max)): 2.94 h
- Vd/F (blood, 400 mg, 400 mg qd, Day 12, blood, Mean ± SD): 4400 ± 3340 L
- Cmax [8]: 476 ng/mL
- Vd/F [8]: 3440 L
- AUC(0-t) (blood, 600 mg, 600 mg qd, Day 1, blood, Median (Min-Max), read-out: AUC0-24): 932 ng·h/mL
- AUC(0-t) (blood, 600 mg, 600 mg qd, Day 1, blood, Median (Min-Max), read-out: AUClast): 931 ng·h/mL
- MRT (blood, 600 mg, 600 mg qd, Day 1, blood, Median (Min-Max)): 3.22 h
- Vd/F (blood, 600 mg, 600 mg qd, Day 12, blood, Mean ± SD): 7130 ± 5120 L
- Cmax [9]: 475 ng/mL
- Vd/F [9]: 7070 L
- concentration at 24 h (blood, multiple doses, typical, read-out: blood concentration at 24 hours post last dose): < 1 ng/mL
- AUC(0-inf) (whole blood, 10 mg, 10 mg qd, Day 12, blood, Mean ± SD): 24.7 ± 3.65 ng·h/mL
- AUC(0-t) (whole blood, 10 mg, 10 mg qd, Day 12, blood, Mean ± SD, read-out: AUC0-24): 24 ± 3.6 ng·h/mL
- AUC(0-t) (whole blood, 10 mg, 10 mg qd, Day 12, blood, Mean ± SD, read-out: AUClast): 22.9 ± 3.5 ng·h/mL
- AUC(0-inf) (whole blood, 10 mg, 10 mg qd, Day 12, blood, Median (Min-Max)): 24.3 ng·h/mL
- AUC(0-t) (whole blood, 10 mg, 10 mg qd, Day 12, blood, Median (Min-Max), read-out: AUC0-24): 23.6 ng·h/mL
- AUC(0-t) (whole blood, 10 mg, 10 mg qd, Day 12, blood, Median (Min-Max), read-out: AUClast): 22.4 ng·h/mL
- AUC(0-inf) (whole blood, 25 mg, 25 mg qd, Day 12, blood, Mean ± SD): 117 ± 60.4 ng·h/mL
- AUC(0-t) (whole blood, 25 mg, 25 mg qd, Day 12, blood, Mean ± SD, read-out: AUC0-24): 117 ± 60.9 ng·h/mL
- AUC(0-t) (whole blood, 25 mg, 25 mg qd, Day 12, blood, Mean ± SD, read-out: AUClast): 114 ± 59.7 ng·h/mL
- AUC(0-inf) (whole blood, 25 mg, 25 mg qd, Day 12, blood, Median (Min-Max)): 102 ng·h/mL
- AUC(0-t) (whole blood, 25 mg, 25 mg qd, Day 12, blood, Median (Min-Max), read-out: AUC0-24): 101 ng·h/mL
- AUC(0-t) (whole blood, 25 mg, 25 mg qd, Day 12, blood, Median (Min-Max), read-out: AUClast): 98.2 ng·h/mL
- AUC(0-inf) (whole blood, 50 mg, 50 mg qd, Day 12, blood, Mean ± SD): 209 ± 80 ng·h/mL
- AUC(0-t) (whole blood, 50 mg, 50 mg qd, Day 12, blood, Mean ± SD, read-out: AUC0-24): 209 ± 80.2 ng·h/mL
- AUC(0-t) (whole blood, 50 mg, 50 mg qd, Day 12, blood, Mean ± SD, read-out: AUClast): 207 ± 80.4 ng·h/mL
- AUC(0-inf) (whole blood, 50 mg, 50 mg qd, Day 12, blood, Median (Min-Max)): 181 ng·h/mL
- AUC(0-t) (whole blood, 50 mg, 50 mg qd, Day 12, blood, Median (Min-Max), read-out: AUC0-24): 181 ng·h/mL
- AUC(0-t) (whole blood, 50 mg, 50 mg qd, Day 12, blood, Median (Min-Max), read-out: AUClast): 179 ng·h/mL
- AUC(0-inf) (whole blood, 100 mg, 100 mg qd, Day 12, blood, Mean ± SD): 577 ± 207 ng·h/mL
- AUC(0-inf) (whole blood, 100 mg, 100 mg qd, Day 12, blood, Median (Min-Max)): 595 ng·h/mL
- AUC(0-t) (whole blood, 100 mg, 100 mg qd, Day 12, blood, Median (Min-Max), read-out: AUC0-24): 429 ng·h/mL
- AUC(0-t) (whole blood, 100 mg, 100 mg qd, Day 12, blood, Median (Min-Max), read-out: AUClast): 444 ng·h/mL
- AUC(0-inf) (whole blood, 400 mg, 400 mg qd, Day 12, blood, Mean ± SD): 1330 ± 608 ng·h/mL
- AUC(0-inf) (whole blood, 400 mg, 400 mg qd, Day 12, blood, Median (Min-Max)): 1210 ng·h/mL
- AUC(0-t) (whole blood, 400 mg, 400 mg qd, Day 12, blood, Median (Min-Max), read-out: AUC0-24): 1140 ng·h/mL
- AUC(0-t) (whole blood, 400 mg, 400 mg qd, Day 12, blood, Median (Min-Max), read-out: AUClast): 1180 ng·h/mL
- AUC(0-inf) (whole blood, 600 mg, 600 mg qd, Day 12, blood, Mean ± SD): 1260 ± 338 ng·h/mL
- AUC(0-inf) (whole blood, 600 mg, 600 mg qd, Day 12, blood, Median (Min-Max)): 1090 ng·h/mL
- AUC(0-t) (whole blood, 600 mg, 600 mg qd, Day 12, blood, Median (Min-Max), read-out: AUC0-24): 1060 ng·h/mL
- half-life (whole blood, 10 mg qd, Day 12, blood, Median (Min-Max)): 0.961 h
- half-life (whole blood, 25 mg qd, Day 12, blood, Median (Min-Max)): 1.15 h
- half-life (whole blood, 50 mg qd, Day 12, blood, Median (Min-Max)): 1.15 h
SMILES: C=CC(=O)N(C)CCOc1c(N)ncnc1-c1cc(F)cc(NC(=O)c2ccc(C3CC3)cc2F)c1C [Compound of Formula (I), N-(3-(6-Amino-5-(2-(N-methylacrylamido)ethoxy)pyrimidin-4-yl)-5-fluoro-2-methylphenyl)-4-cyclopropyl-2-fluorobenzamide]
